Where two headings read alike, the source gives them in different places. Values belong to the molecule of their own block, whether it stands above or below them.
Tests used:
[1] = tested on: uterine horns from wild-type (WT) C57BL/6J female mice; assay: Spontaneous uterine contractility, isolated uterine horns in tissue organ bath; conditions: for IC50: spontaneous, dose-response 10^-9 to 10^-6 mol/L
Procedure: (§1) FIGS. 2A & 2B are representative contraction tracings of uterine horns from wild-type (WT) C57BL/6J female mice. FIG. 2A: Uterine horns were isolated and suspended in a tissue organ bath at 0.5 g of tension. Once equilibrated, selected progestin treatments were added in successively increasing concentrations from 10^−9 to 10^−6 mol/L in 20-minute intervals to assess effect on spontaneous contractile activity (progesterone treatment, bottom panel). The contralateral horn from each mouse was treated with a matching ethanol vehicle (top panel). All contraction responses were measured and reported as the area under the contraction curve (AUC), normalized to the AUC of the spontaneous contraction pattern that preceded treatment. FIG. 2B: Treatment effect on oxytocin-induced contractility was assessed by exposing horns to selected progestin treatments (10^−6 mol/L), followed by increasing doses of oxytocin (Oxt) (1, 10, 50, and 100 nmol/L) in 10-minute intervals (bottom panel). The contralateral horn from each mouse was treated with a matching ethanol vehicle (top panel). Contraction responses were measured and reported as described above.
(§2) All progestins were solubilized in ethanol and then diluted in phosphate-buffered saline to the desired molar concentration. […] The concentration of ethanol decreased parallel to the progestin dose in order to minimize the effect of the solvent on uterine contractility.
(§3) Virgin nonpregnant wild-type C57BL/6J female mice (Jackson Labs, Bar Harbor, Me.) were obtained at 10 to 12 weeks of age and fed a standard diet. Mice were euthanized by an IACUC-approved protocol, and each of the 2 uterine horns were removed. A 1 cm×0.5 cm segment of the uterine horn was suspended using 4-0 silk suture between a stainless steel wire hook connected to a Radnoti force displacement transducer (Radnoti LLC, Monrovia, Calif.) and a glass hook inside an organ bath that served as an anchor. The bath was filled with modified Krebs buffer (118 mmol/L NaCl, […], 1.2 mmol/L MgSO4, 1.2 mmol/L KH2PO4, 2.5 mmol/L CaCl2, 25 mmol/L NaHCO3, and 11 mmol/L glucose, pH 7.4), maintained at 37° C., and constantly bubbled with a premixed gas consisting of 20% O2, 5% CO2, and balance N2. Uterine horns were equilibrated at 0.5 g of tension for approximately 30 minutes until a spontaneous contraction pattern was established.
A total of 60 mice were utilized to assess the effect of the selected treatments on uterine contractility, 30 in the spontaneous contraction group and 30 in the oxytocin-induced group. Six mice were in each progestin treatment group during both spontaneous and oxytocin-induced contractility arms of the study. To determine the nongenomic (acute) effect of the progestin treatments on spontaneous uterine contractility, a segment of uterine horn from each mouse was exposed to a single progestin (progesterone, 17-OHPC, 2α-OHP, 6β-OHP, or 16αOHP), while a segment of the contralateral horn was exposed to a matching dose of ethanol vehicle. After a spontaneous contraction pattern was achieved, the progestin treatment was added to the tissue organ bath in successively increasing concentrations from 10^−9 to 10^−6 mol/L in 20-minute intervals. At the end of the treatments, the tissue was washed in modified Krebs buffer and then exposed to KCl (60 mmol/L) to elicit a tetanic response and confirm tissue viability.
Uterine contraction responses were recorded using LabChart Pro (ADInstruments, Colorado Springs, Colo.) software as the force generated with time (g×min). Baseline uterine contractility was calculated as the area under the curve (AUC) for a 10-minute period of spontaneous contractions. The AUC of the uterine contractile response to each treatment (progestin or oxytocin) was determined and expressed as a percentage of the baseline AUC observed during spontaneous contraction. […]

[2] = tested on: uterine horns from wild-type (WT) C57BL/6J female mice; assay: Oxytocin-induced uterine contractility after progestin pretreatment, isolated uterine horns in tissue organ bath; conditions: for EC50: oxytocin-induced dose-response (1-100 nmol/L oxytocin) after progestin pretreatment 10^-6 mol/L
Procedure: as §1, §2, §3
To determine the nongenomic effect of progestin treatments on oxytocin-induced uterine contractility, the uterine horns were pretreated with a single progestin at 10^−6 mol/L for 10 minutes after a spontaneous contractile pattern was established. The contralateral horn from the same mouse was treated with ethanol vehicle at a matching concentration. The uterine horns were subsequently exposed to increasing concentrations of oxytocin (1, 10, 50, and 100 nmol/L) in 10-minute intervals. At the end of the oxytocin treatments, the tissue was washed and then exposed to KCl (60 mmol/L) to elicit a tetanic response and confirm tissue viability.
Uterine contraction responses were recorded using LabChart Pro (ADInstruments, Colorado Springs, Colo.) software as the force generated with time (g×min). Baseline uterine contractility was calculated as the area under the curve (AUC) for a 10-minute period of spontaneous contractions. The AUC of the uterine contractile response to each treatment (progestin or oxytocin) was determined and expressed as a percentage of the baseline AUC observed during spontaneous contraction. […] To account for repeated measurements for individual muscle strips at increasing treatment doses, a repeated measures 2-way analysis of variance model was used to compare the dose-response curves. Each dose-response curve was fit by nonlinear regression and compared using an extra sum of squares F test. The mean max-fit response was compared between each progestin and vehicle control to determine maximum treatment efficacy. […]

[3] = tested on: primary uterine smooth muscle cells (UtSMC); assay: IL-6 production in UtSMC stimulated with LPS; type: cell-based; conditions: UtSMC pre-treated, then LPS
Procedure: In this Example, the effect of progesterone metabolites 16αOHP and 6β-OHP on inflammation in primary uterine smooth muscle cells (UtSMC) was analyzed.
UtSMC were cultured in the presence of DMSO and one of the following: (1) progesterone; (2) […]; (3) 6β-OHP; and (4) 16αOHP. Lipopolysaccharide (LPS) was then added to the culture to stimulate an immune inflammatory reaction. Experiments were performed in triplicate.

[4] = tested on: primary uterine smooth muscle cells (UtSMC); assay: IL-6 production in UtSMC stimulated with TNF-α; type: cell-based
From the text: FIGS. 5A & 5B are graphs depicting the effect of progesterone metabolites 16αOHP and 6β-OHP on inflammation in primary uterine smooth muscle cells (UtSMC).

THP-1 monocyte cells = assay: Flow cytometry of monocyte-derived macrophage population (PMA differentiation); type: cell-based; conditions: THP-1 pre-treated 24 hours, then PMA
Procedure: FIGS. 6A-6C depict flow cytometry of a monocyte-derived macrophage population pre-treated with progesterone metabolites. THP-1 monocyte cells were pre-treated with progesterone metabolites 16αOHP and 6β-OHP for 24 hours, then stimulated to differentiate to macrophages by exposure to PMA.
THP-1 monocyte cells were pre-treated with progesterone metabolites 16αOHP and 6β-OHP for 24 hours, then stimulated to differentiate to macrophages by exposure to phorbol 12-myristate 13-acetate (PMA).

THP-1 monocytes = assay: IL-6 production in THP-1 monocytes stimulated with LPS; type: cell-based; conditions: THP-1 monocytes pretreated, then LPS; versus positive control
Procedure: FIG. 9 is a graph depicting the effect of progesterone and progesterone metabolites (16αOHP and 6β-OHP) on inflammation in THP-1 monocytes stimulated with LPS.
In this Example, the effect of progesterone and progesterone metabolites (16αOHP and 6β-OHP) on inflammation in THP-1 monocytes stimulated with LPS was analyzed.

CYP3A [5] = tested on: CYP3A
CYP3A [6] = assay: CYP3A production of 16α-OHP and 6β-OHP in human liver microsomes (HLMs); conditions: p<0.01
[7] = maximal oxytocin dose (100 nmol/L)
[8] = oxytocin-induced, progestin pretreatment 10^-6 mol/L, maximal oxytocin dose (100 nmol/L)

IC50 ([1]; read-out: Contractile Force IC50): 0.48 nM | IC50 ([1]; read-out: Contractile Frequency IC50): 4.1 nM | EC50 ([2]; read-out: Contractile Force EC50): 20.9 nM | EC50 ([2]; read-out: Contractile Frequency EC50): 12.8 nM | Production of metabolite in human liver microsomes (in words) (CYP3A [5]): favored
Compound: CC(=O)[C@H]1CC[C@H]2[C@@H]3C[C@@H](O)C4=CC(=O)CC[C@]4(C)[C@H]3CC[C@]12C [6β-OHP, 4-pregnen-6β-ol-3,20-dione]
Spontaneous contractile force compared with the vehicle control (in words) ([1]; maximal treatment dose): No significant difference | Spontaneous uterine contraction frequency compared to vehicle control (in words) ([1]; maximal treatment dose): not significantly decreased | Contractile Frequency/10 min (% of baseline), Drug ([1]; spontaneous contractility, maximal treatment dose): 46.2% of baseline | Contractile Force (% of baseline), Drug ([1]; spontaneous contractility, maximal treatment dose, AUC as % of baseline AUC): 45% of baseline | Effect on oxytocin-induced uterine contractility (in words) [2]: increase | Oxytocin-induced contractile force compared to vehicle control (in words) [2, 7]: no differences | Oxytocin-induced contraction frequency compared to control (in words) [2, 7]: decreased significantly | Contractile Force (% of baseline), Drug [2, 8]: 267.6% of baseline | Contractile Frequency/10 min (% of baseline), Drug [2, 8]: 196.1% of baseline | Contractile Frequency/10 min (% of baseline), Drug ([2]; oxytocin-induced, progestin pretreatment 10^-6 mol/L, maximal oxytocin dose (100 nmol/L), listed as 6β-hydroxyprogesterone): 196 % of baseline | IL-6 ([3]; LPS positive control 121.7 pg/mL): 125.4 pg/mL | IL-6, % of positive control ([3]; relative to DMSO+LPS positive control): 102% | IL-6 production (in words) [4]: decreased IL-6 production | Macrophage population/phenotype compared to DMSO treated control (in words) (THP-1 monocyte cells): decrease in the macrophage population/phenotype | Macrophages, % of the total population (THP-1 monocyte cells; DMSO control 77%): 52% | Inflammatory response (IL-6 production) (in words) (THP-1 monocytes): significantly decreased IL-6 production

Compound: CC(=O)N1CCN(c2ccc(OCC3COC(Cn4ccnc4)(c4ccc(Cl)cc4Cl)O3)cc2)CC1 (stereo not shown) [ketoconazole]
Effect on CYP3A production of 16α-OHP and 6β-OHP (CYP3A [6]): inhibited
